Consider three compounds from patent US6534494B1, “Process for the preparation of cefuroxime axetil in an amorphous form” (Ranbaxy Laboratories Limited, priority 1998, dated 2003).

A short description of series [1]: Particle size by scanning electron microscopy. It is filed as physicochemical. Particulars: crystalline feed material before milling. As for the experimental part: 30 g of crystalline cefuroxime axetil S isomer with a particle size of 10-300 μm and having a bulk density of 0.391 g/cc, together with 3 g of sodium lauryl sulphate (SLS) were placed in the bowl of a Micros ‘0’ Super Fine Mill. Cold water was circulated through the outer jacket. The mill was operated with main shaft rotation set at 1000 rpm for 120 mins. The inner temperature was maintained in the range from 19-24° C. […] Samples of the material were examined by scanning electron microscopy and by X-ray diffraction crystallography.
Crystalline cefuroxime axetil S isomer with a particle size of 10-300 μm and having a bulk density of 0.391 g/cc, a mixture of crystalline cefuroxime axetil S isomer with crystalline cefuroxime axetil R isomer with a particle size of 5-50 μm, and having a bulk density of 0.221 g/cc. and crystalline cefuroxime axetil R,S racemic mixture were tested for conversion from the crystalline form to an amorphous form in different trials. The feed material consisted of cefuroxime axetil together with sodium lauryl sulphate or cefuroxime axetil together with sodium lauryl sulphate and colloidal silica (Aerosil 200). Samples of the material were withdrawn at various times for X-ray diffraction crystallography using a XRG 3000 diffractometer, and for scanning electron photomicrography. […] The percent crystallinity for the samples from Examples 6-9 was estimated to be less than 5% in all cases confirming the conversion of cefuroxime axetil to a predominantly (at least 95%) amorphous form.

A short description of series [2]: Bulk density of crystalline feed material. It is filed as physicochemical. Particulars: crystalline feed material before milling.
The conditions of series [3]: compared with the crystalline form; cited from earlier work.
For series [4] the following is noted: amorphous form, purity at least 95%; cited from earlier work.
The mark [5] stands for this setting: listed as Crystalline cefuroxime axetil S isomer.

`CO/N=C(\C(=O)N[C@@H]1C(=O)N2C(C(=O)OC(C)OC(C)=O)=C(COC(N)=O)CS[C@H]12)c1ccco1` (stereo partly drawn) [crystalline cefuroxime axetil S isomer, cefuroxime axetil]: the particle size in series [1] and in series [1] (setting [5]) was 10-300 μm in each case. In addition, the bulk density in series [2] and in series [2] (setting [5]) was 0.391 g/cc throughout.

With `CO/N=C(\C(=O)N[C@@H]1C(=O)N2C(C(=O)OC(C)OC(C)=O)=C(COC(N)=O)CS[C@H]12)c1ccco1` (some centres unmarked) [cefuroxime axetil in amorphous form, cefuroxime axetil], the bioavailability entry in series [3] is recorded as “higher bioavailability than the crystalline form”. Besides, the chemical stability result in series [4] is on record as “adequate chemical stability”.

As to `CO/N=C(\C(=O)N[C@@H]1C(=O)N2C(C(=O)OC(C)OC(C)=O)=C(COC(N)=O)CS[C@H]12)c1ccco1` (stereo partly drawn) [crystalline cefuroxime axetil R isomer, cefuroxime axetil], the particle size in series [1] is listed as 5-50 μm. In series [2], this compound showed a bulk density of 0.221 g/cc.
